Our source for the IC50 values is patent US8017612B2, “Piperazine compound and use thereof as a HCV polymerase inhibitor” (priority 2006, dated 2011).

Molecules are shown by their SMILES. Where a name gives a salt, the structure may show the parent alone. Some results are limits rather than exact numbers.

The target in assay [1] is T1, HCV polymerase (NS5B) type 1b (Hepatitis C virus genotype 1b, UniProt P26663).
T1 construct: a region encoding NS5B (J Virol 1991 March, 65(3), 1105-13, 544 amino acids after deletion of 47 amino acids on the C-terminal); 6xHis (C); made in house; host or cells: Escherichia coli
As to the kind of experiment: Assay of enzyme (HCV polymerase) inhibitory activity, type 1b enzyme. The assay is classed as biochemical, HCV BK strain (type 1b). The conditions noted are these: HCV polymerase inhibitory activity IC50, 1b, type 1b enzyme. The method, boiled down:
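Polymerase activity was followed as radiolabelled UTP incorporation by E. coli-expressed, His-tagged NS5B of HCV type 1b lacking its last 47 residues. Conditions: 2 μM UTP, 50 μM other NTPs, Mg2+ buffer at pH 7.5, 25 °C for 60 min. Inhibition relative to compound-free reactions gave IC50.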

Assay [2] has as its target T2, HCV polymerase (NS5B) type 1a (Hepatitis C virus genotype 1a, UniProt P26664).
T2 construct: made in house; host or cells: Escherichia coli (by the 'similar method' of the 1b enzyme)
As to the kind of experiment: Assay of enzyme (HCV polymerase) inhibitory activity, type 1a enzyme. It counts as biochemical, HCV type 1a (cloned from the blood of patients). The conditions noted are these: HCV polymerase inhibitory activity IC50, 1a, type 1a enzyme. In outline:
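IC50 values derive from radioactivity of newly synthesized RNA with versus without test compound. The enzyme was C-terminally truncated type 1a NS5B, 1.5 μg/ml, run 60 min at 25° C with 3H-UTP-labelled nucleotides.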

`NC(=O)c1nncc2sc(N3CCN(S(=O)(=O)c4ccc(OC(F)(F)F)cc4)[C@@H](C(=O)NCc4ccc(OC(F)(F)F)cc4)C3)nc12` [Example 915, 2-[(R)-4-(4-trifluoromethoxy-benzenesulfonyl)-3-(4-trifluoromethoxy-benzylcarbamoyl)-piperazin-1-yl]-thiazolo[4,5-d]pyridazine-4-carboxylic acid amide]: the IC50 in assay [1] and in assay [2] was below 100 nM in each case.

Consider `CNC(=O)c1nncc2sc(N3CCN(S(=O)(=O)c4ccc(OC(F)(F)F)cc4)[C@@H](C(=O)NCc4ccc(OC(F)(F)F)cc4)C3)nc12` [Example 916, 2-[(R)-4-(4-trifluoromethoxy-benzenesulfonyl)-3-(4-trifluoromethoxy-benzylcarbamoyl)-piperazin-1-yl]-thiazolo[4,5-d]pyridazine-4-carboxylic acid methylamide], for which the IC50 in assay [1] and in assay [2] was below 100 nM throughout.

As for `Cc1nncc2sc(N3CCN(S(=O)(=O)c4ccc(OC(F)(F)F)cc4)[C@@H](C(=O)NCc4ccc(OC(F)(F)F)cc4)C3)nc12` [Example 917, (R)-4-(4-methyl-thiazolo[4,5-d]pyridazin-2-yl)-1-(4-trifluoromethoxy-benzenesulfonyl)-piperazine-2-carboxylic acid 4-trifluoromethoxy-benzylamide], the half-maximal inhibitory concentration (IC50) in assay [1] and in assay [2] was below 100 nM each time.

On to `O=C(NCc1ccc(OC(F)(F)F)cc1)[C@H]1CN(c2nc3nc(Cl)ncc3s2)CCN1S(=O)(=O)c1ccc(OC(F)F)cc1` [Example 918, (R)-4-(5-chloro-thiazolo[4,5-d]pyrimidin-2-yl)-1-(4-difluoromethoxy-benzenesulfonyl)-piperazine-2-carboxylic acid 4-trifluoromethoxy-benzylamide], for which the IC50 in assay [1] and in assay [2] was below 100 nM in each case.

With `O=C(NCc1ccc(OC(F)(F)F)cc1)[C@H]1CN(c2nc3ncncc3s2)CCN1S(=O)(=O)c1ccc(OC(F)F)cc1` [Example 919, (R)-1-(4-difluoromethoxy-benzenesulfonyl)-4-thiazolo[4,5-d]pyrimidin-2-yl-piperazine-2-carboxylic acid 4-trifluoromethoxy-benzylamide], the concentration for half-maximal inhibition (IC50) in assay [1] and in assay [2] was below 100 nM throughout.

Take `Cc1cc(=O)n2nc(N3CCN(S(=O)(=O)c4ccc(OC(F)(F)F)cc4)[C@@H](C(=O)NCc4ccc(OC(F)(F)F)cc4)C3)sc2n1` [Example 920, (R)-4-(7-methyl-5-oxo-5H-[1,3,4]thiadiazolo[3,2-a]pyrimidin-2-yl)-1-(4-trifluoromethoxy-benzenesulfonyl)-piperazine-2-carboxylic acid 4-trifluoromethoxy-benzylamide]: the 50% inhibitory concentration (IC50) – broadly, the concentration that inhibits the measured activity by half – is below 100 nM in assay [1] and 100 to 1000 nM in assay [2].

For the compound `Cc1ncc2nc(N3CCN(S(=O)(=O)c4ccc(OC(F)(F)F)cc4)[C@@H](C(=O)NCc4ccc(OC(F)(F)F)cc4)C3)sc2n1` [Example 921, (R)-4-(5-methyl-thiazolo[5,4-d]pyrimidin-2-yl)-1-(4-trifluoromethoxy-benzenesulfonyl)-piperazine-2-carboxylic acid 4-trifluoromethoxy-benzylamide], the results for the IC50 in assay [1] and in assay [2] were below 100 nM and 100 to 1000 nM, respectively.

For `O=C(NCc1ccc(OC(F)(F)F)cc1)[C@H]1CN(c2nn3cnnc3s2)CCN1S(=O)(=O)c1ccc(OC(F)(F)F)cc1` [Example 922, (R)-4-[1,2,4]triazolo[3,4-b][1,3,4]thiadiazol-6-yl-1-(4-trifluoromethoxy-benzenesulfonyl)-piperazine-2-carboxylic acid 4-trifluoromethoxy-benzylamide], the 50% inhibitory concentration (IC50) in assay [1] and in assay [2] was below 100 nM throughout.

As for `O=C1CCC(N2CCN(S(=O)(=O)c3ccc(OC(F)(F)F)cc3)[C@@H](C(=O)NCc3ccc(OC(F)(F)F)cc3)C2)CN1` (stereo partly drawn) [Example 923, (R)-4-(6-oxo-piperidin-3-yl)-1-(4-trifluoromethoxy-benzenesulfonyl)-piperazine-2-carboxylic acid 4-trifluoromethoxy-benzylamide], the 50% inhibitory concentration (IC50) in assay [1] and in assay [2] was 100 to 1000 nM in each case.

Regarding `O=C(NCc1ccc(OC(F)(F)F)cc1)[C@H]1CN(c2ccc(=O)[nH]c2)CCN1S(=O)(=O)c1ccc(OC(F)(F)F)cc1` [Example 924, (R)-4-(6-oxo-1,6-dihydro-pyridin-3-yl)-1-(4-trifluoromethoxy-benzenesulfonyl)-piperazine-2-carboxylic acid 4-trifluoromethoxy-benzylamide hydrochloride], the IC50 in assay [1] and in assay [2] was 100 to 1000 nM each time.

As for `Cc1ncc2sc(N3CCN(S(=O)(=O)c4ccc(C(F)(F)F)cc4)[C@@H](C(=O)NCc4ccc(OC(F)(F)F)cc4)C3)nc2n1` [Example 925, (R)-4-(5-methyl-thiazolo[4,5-d]pyrimidin-2-yl)-1-(4-trifluoromethyl-benzenesulfonyl)-piperazine-2-carboxylic acid 4-trifluoromethoxy-benzylamide], the 50% inhibitory concentration (IC50) in assay [1] and in assay [2] was below 100 nM each time.

Take `CCC(F)(F)c1ccc(CNC(=O)[C@H]2CN(c3nc4nc(C)ncc4s3)CCN2S(=O)(=O)c2ccc(OC(F)(F)F)cc2)cc1` [Example 926, (R)-4-(5-methyl-thiazolo[4,5-d]pyrimidin-2-yl)-1-(4-trifluoromethoxy-benzenesulfonyl)-piperazine-2-carboxylic acid 4-(1,1-difluoro-propyl)-benzylamide]: the IC50 in assay [1] and in assay [2] was below 100 nM throughout.

As to `Cc1nc(Cl)c2sc(N3CCN(S(=O)(=O)c4ccc(C(F)(F)F)cc4)[C@@H](C(=O)NCc4ccc(OC(F)(F)F)cc4)C3)nc2n1` [Example 927, (R)-4-(7-chloro-5-methyl-thiazolo[4,5-d]pyrimidin-2-yl)-1-(4-trifluoromethyl-benzenesulfonyl)-piperazine-2-carboxylic acid 4-trifluoromethoxy-benzylamide], the IC50 in assay [1] and in assay [2] was below 100 nM each time.

Regarding `CCC(F)(F)c1ccc(CNC(=O)[C@H]2CN(c3nc4nc(C)nc(Cl)c4s3)CCN2S(=O)(=O)c2ccc(OC(F)(F)F)cc2)cc1` [Example 928, (R)-4-(7-chloro-5-methyl-thiazolo[4,5-d]pyrimidin-2-yl)-1-(4-trifluoromethoxy-benzenesulfonyl)-piperazine-2-carboxylic acid 4-(1,1-difluoro-propyl)-benzylamide], the 50% inhibitory concentration (IC50) in assay [1] and in assay [2] was below 100 nM throughout.

As to `COc1ncc2sc(N3CCN(S(=O)(=O)c4ccc(OC(F)(F)F)cc4)[C@@H](C(=O)NCc4ccc(OC(F)(F)F)cc4)C3)nc2n1` [Example 929, (R)-4-(5-methoxy-thiazolo[4,5-d]pyrimidin-2-yl)-1-(4-trifluoromethoxy-benzenesulfonyl)-piperazine-2-carboxylic acid 4-trifluoromethoxy-benzylamide], the half-maximal inhibitory concentration (IC50) in assay [1] and in assay [2] was below 100 nM each time.

Turning to `CN(C)C(=O)c1nncc2sc(N3CCN(S(=O)(=O)c4ccc(OC(F)(F)F)cc4)[C@@H](C(=O)NCc4ccc(OC(F)(F)F)cc4)C3)nc12` [Example 930, 2-[(R)-4-(4-trifluoromethoxy-benzenesulfonyl)-3-(4-trifluoromethoxy-benzylcarbamoyl)-piperazin-1-yl]-thiazolo[4,5-d]pyridazine-4-carboxylic acid dimethylamide], the IC50 in assay [1] and in assay [2] was below 100 nM in each case.

For the compound `O=C(NCc1ccc(OC(F)F)cc1)[C@H]1CN(c2nc3nc(Cl)ncc3s2)CCN1S(=O)(=O)c1ccc(OC(F)(F)F)cc1` [Example 931, (R)-4-(5-chloro-thiazolo[4,5-d]pyrimidin-2-yl)-1-(4-trifluoromethoxy-benzenesulfonyl)-piperazine-2-carboxylic acid 4-difluoromethoxy-benzylamide], the IC50 in assay [1] and in assay [2] was below 100 nM each time.

On to `O=C(NCc1ccc(OC(F)F)cc1)[C@H]1CN(c2nc3ncncc3s2)CCN1S(=O)(=O)c1ccc(OC(F)(F)F)cc1` [Example 932, (R)-4-thiazolo[4,5-d]pyrimidin-2-yl-1-(4-trifluoromethoxy-benzenesulfonyl)-piperazine-2-carboxylic acid 4-difluoromethoxy-benzylamide], for which the IC50 in assay [1] and in assay [2] was below 100 nM in each case.

Turning to `Cc1nnc2sc(N3CCN(S(=O)(=O)c4ccc(OC(F)(F)F)cc4)[C@@H](C(=O)NCc4ccc(OC(F)(F)F)cc4)C3)nn12` [Example 933, (R)-4-(3-methyl-[1,2,4]triazolo[3,4-b][1,3,4]thiadiazol-6-yl)-1-(4-trifluoromethoxy-benzenesulfonyl)-piperazine-2-carboxylic acid 4-trifluoromethoxy-benzylamide], the half-inhibitory concentration (IC50) in assay [1] and in assay [2] was below 100 nM in each case.

For `CCC(F)(F)c1ccc(CNC(=O)[C@H]2CN(c3nc4nc(C)nc(Cl)c4s3)CCN2S(=O)(=O)c2ccc(C(F)(F)F)cc2)cc1` [Example 934, (R)-4-(7-chloro-5-methyl-thiazolo[4,5-d]pyrimidin-2-yl)-1-(4-trifluoromethyl-benzenesulfonyl)-piperazine-2-carboxylic acid 4-(1,1-difluoro-propyl)-benzylamide], the IC50 in assay [1] and in assay [2] was below 100 nM each time.
